Data as given in patent publication US6358736B1, “Method for increasing the antigen presenting ability of leukemia cells” (The United States of America as represented by the …, priority 1995, dated 2002).

Tests used:
[1] = tested on: pooled monocyte plus dendritic cell elutriation fractions; assay: FACS analysis of pooled 150-190 elutriation (APC) fractions after calcium ionophore activation; type: cell-based, human; settings: 500 ng A23187
Method: Two patients were hooked up to Fenwal™ CS-3000 leukapheresis apparatus' running a Procedure 8 modification software program. Patient #1 had been previously diagnosed with colon cancer, and Patient #2 was a normal control. The Fenwal™ apparatus was configured to isolate a sample of neutrophil-depleted, platelet-rich cells from each patients' peripheral blood. After 3-5 hours of leukaphereis, the isolated blood cells from each patient were quickly spun down in a centrifuge and then rinsed in citrate buffer to remove any excess plasma, tumor related proteins or calcium.
Following the citrate buffer rinse, the cells were resuspended in EDTA-free, Ca^++/Mg^++ HBSS. The isolated cells from each patient were then subject to elutriation on a Beckman™ JE-6B elutriation rotor. Once reaching a speed of 3000 rpm, 5×10^9 cells were elutriated by pressurized air at buffer flow rates of 120, 140, 150, 160, 170, 180, 190 and 200 cc/minute.
Each fraction from both patients were immediately placed on ice to prevent cell adherence to the plastic walls of the collection vials. We coulter counted each of the fractions and discarded the r/o fraction because it had greater than a 10% contamination of neutrophils. The 150, 160, 170, 180 and 190 cc/min fractions from Patient #1 and Patient #2 were pooled then subject to calcium ionophore. The pooled fractions from each patient were divided in half, with one half being activated by 500 ng of calcium ionophore A23187 (Sigma), and one half being inactivated. From our previous experiments, we expected that the calcium ionophore treated cells would have a much higher number of dendritic cells due to conversion of monocytes to DCs. Prior to FACS analysis, we activated Patient #1's pooled fractions by incubating both the untreated and calcium ionophore treated cells for 40 hours in the presence of an autologous tumor cell lysate (the patients own tumor cells). Similarly, we activated Patient #2's pooled fractions by incubating both the untreated and calcium ionophore treated cells in the presence of keyhole limpet hemocyanin (KLH) for 40 hours.
The vast majority of cells stained in the pooled fractions were expected to be CD14+(ie: monocytes). The horizontal (X) axis of the FACS plot illustrated staining for DR, B7.1 or B72 surface antigens.

[2] = tested on: monocytes cocultured with autologous CD8+ T cells; assay: Autologous CD8+ T cell sensitization to peptide-pulsed monocytes (interferon gamma secretion); type: cell-based, human
Method: Monocyte-rich elutriation fractions from healthy HLA-A2.1 donors were either untreated or treated with ionophore A23187 750 ng/ml for 40 hours, then pulsed with either the M1 influenza-derived peptide or the MART1 melanoma-derived peptide (the M1 peptide is a “recall antigen” for all HLA-A2.1^pos individuals, whereas the MART1 peptide is usually a “recall antigen” only for HLA-A2.^pos patients with melanoma). Antigen-pulsed monocytes were cocultured with freshly prepared autologous CD8^+ T cells for 8-10 days; the T cells were then harvested and cocultured with peptide-pulsed HLA-A2.1 positive T2 stimulator cells which had been pulsed 2 hours with 1 μg/ml of either the MART1 peptide, the influenza M1 derived peptide, or an irrelevant HIV peptide to assess whether specific sensitization to FLU or MART1 peptides was attained.
After 40 hours, the cells were pulsed with a tumor derived HER2neu (369-377) peptide for two hours, harvested, then FACS analyzed or cocultured for 8-10 days with naive autologous CD8^+ T cells to determine whether rapid sensitization to the HER2neu peptide could be achieved.

HL-60 cells [3] = assay: FACS analysis of cell surface markers on HL-60 cells; type: cell-based, human
Method: Calcium was removed from cultured cells by two methods.
The second method involved washing the cells extensively in calcium-free RPMI medium, and culturing them in the same calcium-free medium supplemented with serum that had been dialyzed against calcium-free phosphate-buffered saline.
The calmodulin kinase inhibitors KN-62 (20 uM) or KT-5926 (1 uM) was added to HL-60 cells in the presence of 188 ng/ml A23187. Twenty four hours later the level of CD80 was analyzed.
Thapsigargin was added to cultured human peripheral blood monocytes and HL-60 cells in concentrations ranging from 0 to 1000 nM. Cells were harvested 24 hours later and evaluated for the acquisition of ADC immunophenotypic characteristics by FACS analysis.
Cells were harvested after three days, irradiated (3000R), then FACS analyzed or cocultured in graded numbers with freshly prepared naive (CD45RO negative) T lymphocytes. Allosensitization was assessed by pulsing at day 4 with ^3H-TdR and harvesting 18 hours later.

[4] = tested on: B cell subpopulation within the PBMC; assay: FACS analysis of B cell subpopulation in unfractionated PBMC; type: cell-based, human; settings: A23187 750 mg/ml, 40 hours
Method: (§1) PBMC were prepared by leukapheresis and Ficoll-Hypaque and placed in culture. Since the cells were never elutriated and no adherence step was performed, these cultures included large numbers of T, B, and NK lymphocytes as well as monocytes. The medium was our standard RPMI 10% human AB serum with antibiotics including amphotericin B. Cells were either untreated or treated for 40 hours with calcium ionophore A23187 […]. Cells were then harvested and analyzed by FACS. Cells were stained with FITC conjugated anti-CD3, anti-CD40, anti-CD57, anti-CD14, or the combination; in addition cells were stained with PE conjugated control antibodies, anti-B7.1, anti-B7.2, etc. In this way the effect of calcium ionophore treatment on each parameter could be clearly delineated.

[5] = tested on: NK subpopulation within the PBMC; assay: FACS analysis of NK subpopulation in unfractionated PBMC; type: cell-based, human; settings: A23187 750 mg/ml, 40 hours
Method: as §1

[6] = tested on: adherence-enriched monocytes; assay: FACS analysis of monocytes enriched by Ficoll separation and adherence; type: cell-based, human; settings: A23187 750 ng/ml, 20 hours
Method: Blood was drawn in heparinized syringes (approximately 80 cc), diluted 1:1 with normal saline, layered on Ficoll-Hypaque, and centrifuged for 20 minutes to remove neutrophils and red blood cells. The peripheral blood mononuclear cell (PBMC) containing interface were washed, counted, and added to 24 well plates, 2 cc culture medium per well, 2×10^7 cells per well.
After 60 minutes the non adherent cells were removed, leaving a half confluent surface of adherent cells in each well (i.e., monocyte enrichment by adherence) Wells were either untreated or treated with calcium ionophore A23 187 750 ng/ml, and harvested 20 hours later.

HL-60 cells [7] = assay: FACS analysis of cell surface markers on HL-60 cells; type: cell-based, human; settings: optimal doses, within 20 hours
[8] = tested on: monocytes / dendritic cells cocultured with allogeneic T cells; assay: Allogeneic T cell sensitization (3H-thymidine) by treated monocytes/dendritic cells; settings: A23187 750 ng/ml, 40 hours
Method: Uncultured monocytes and DC were each purified from elutriation fractions using Miltenyi microsuperparamagnetic beads; monocytes were positively selected based on CD14 expression, while dendritic cells were negatively selected based on low CD14 expression, then positively selected based on CD33 (myeloid marker) expression. Each isolated fraction was cultured for 40 hours either in medium alone or in ionophore A23187 750 ng/ml, then harvested and either FACS analyzed or microcultured with freshly prepared allogeneic T lymphocytes. Graded numbers of the cultured monocytes or dendritic cells were added to fixed numbers of T cells to compare their antigen-presenting ability. Four days later the microcultures were pulsed with ^3H-dTr and harvested 18 hours later.
Monocyte rich elutriation fractions were cultured for 40 hours with either no additives, ionophore A23187 750 ng/ml, or rhIlL-4 (1000 u/ml) and rhGM-CSF (20 ng/ml), a cytokine combination which leads monocytes to differentiate completely to dendritic cells during seven days of culture (Pickl et al, J. Immunol. 157:3850, 1996). MOMC were then harvested, irradiated (1000 rads) and cocultured in triplicate at various MOMC: T cell ratios with 10^5 allogeneic freshly prepared CD4^+ T cells in 0.2 ml RPMI with 5% AB plasma in 96 well tissue flat bottom culture plates. No cytokines were added during coculture. After 4 days [^3H]thymidine (1 μCi/well) was added and 18 hours later the wells were harvested and counted.
Monocytes in monocyte rich elutriation fractions (90-93% monocytes) were further purified using Miltenyi microsuperparagnetic beads coupled to anti-CD14. After incubation with these beads cells were applied to a magnetized column to positively select the strongly CD14^pos cells, and were enriched to >98% purity. Unpurified or purified monocytes were cultured for 40 hours in our standard culture medium with 750 ng/ml ionophore A23187, then harvested. The recovered cells were either immediately FACS analyzed or added in graded numbers to freshly prepared allogeneic T cells to assay their antigen presenting function. Four days later, the T cell cultures were pulsed with ^3H-TdR (tritiated thymidine) and harvested 18 hours later.

[9] = colon cancer patient, 40 hours with autologous tumor cell lysate
[10] = normal donor, 40 hours with KLH

CNc1ccc2oc(C[C@H]3O[C@@]4(CC[C@H]3C)O[C@H]([C@H](C)C(=O)c3ccc[nH]3)[C@H](C)C[C@H]4C)nc2c1C(=O)O [A23187]
B7.1 expression [1, 9]: substantial but less uniform upregulation of B7.1
HLA-DR and B7.2 expression [1, 9]: marked upregulation of HLA-DR and B7.2
conversion of cells to cocktail negative (dendritic) phenotype [1, 9]: vast majority of cells were now converted to cocktail negative
HLA-DR, B7.1 and B7.2 expression [1, 10]: markedly upregulated for HLA-DR, B7.1 and B7.2
conversion of cells to cocktail (CD3, CD14, CD20, CD56) negative (dendritic) phenotype [1, 10]: vast majority of these cells was now cocktail negative
stimulation of autologous T cell response to recall antigen M1 influenza peptide, vs untreated monocytes ([2]; A23187 750 ng/ml, 40 hours, HLA-A2.1 donors): equally able
sensitization of autologous T cells to MART1 peptide ([2]; A23187 750 ng/ml, 40 hours, eight normal donors): in every instance
T cell sensitization to HER2neu (369-377) peptide ([2]; monocytes treated 40 hours, majority of patients): could not be achieved
costimulatory molecule expression (HL-60 cells [3]; A23187 180 ng/ml, three days): marked upregulation of costimulatory molecules B7.1, B7.2, and ICAM-1
HLA-DR expression (HL-60 cells [3]; agent alone): not induced
ablation of ionophore-induced upregulation of CD80 and CD86 (HL-60 cells [3]; calcium-free RPMI and dialyzed serum): ~100%
B7.1 and B7.2 expression [4]: a subpopulation of B cells developed marked B71 and B72 expression
upregulation of surface markers [5]: negligible upregulation of surface markers
B7.1 and CD83 expression [6]: de novo B7.1 and CD83 expression
B7.2, HLA-DR and CD40 expression [6]: upregulated B72, HLA-DR, and CD40 expression
CD14 expression [6]: uniform CD14 downregulation
expression of CD83, ICAM-1, B7.1 and B7.2 (HL-60 cells [7]): uniform de novo expression of CD83, ICAM-1, B7.1, and B7.2
T cell sensitizing capacity of purified monocytes vs prepurified fraction cells [8]: enhanced T cell sensitizing capacity identical on a cell numbers basis
T cell sensitizing capacity of treated monocytes (allogeneic CD4+ T cells) ([8]; graded numbers): much greater T cell sensitizing capacity
T cell sensitizing efficiency of purified DC ([8]; vs untreated): only a modest increase
T cell sensitizing efficiency of purified monocytes ([8]; vs untreated): a more marked enhancement
